Columns and labels:
[1] = test system: human penile resistance arteries (HPRA); experiment: Vascular reactivity of resistance penile arteries (myograph, isometric tension)
Protocol: Penile small arteries, helicine arteries (lumen diameter 150-400 μm), which are the terminal branches of deep penile arteries, were dissected by carefully removing the adhering trabecular tissue, and arterial ring segments (of 2 mm length) were subsequently mounted on two 40 μm wires on microvascular double Halpern-Mulvany myographs (J.P. Trading, Aarhus, Denmark) for isometric tension recordings. The vascular segments were allowed to equilibrate for 30 min in physiological salt solution (PSS) of the following composition (each given in mM): 119 NaCl, 4.6 KCl; 1.5 CaCl2, 1.2 MgCl2, 24.9 NaHCO3, 11 Glucose, 1,2 KH2PO4, 0.027 EDTA in water at 37° C., continuously bubbled with a 95% O2/5% CO2 mixture to maintain a pH of 7.4. Passive tension and internal circumference of the vascular segments when relaxed in situ under a transmural pressure of […] (L100) were determined. The vascular segments were then set to an internal circumference eqivalent to 90% of L100, at which the force development was dose to maximal as described in Mulvany M J, Halpem W., “Contractile properties of small resistance arteries in spontaneously hypertensive and normotensive rats”, Circ. Res., 41, 19-26, 1977. The respective literature description is incorporated by reference and is part of the disclosure. The preparations were then exposed to 125 mM K^+ (KPSS, equimolar substitution of NaCl for KCl in PSS) and the contractile response was measured. The arteries were contracted with 1 μm norepinephrine (approximately 80% of KPSS induced contraction) and relaxation responses were evaluated by cumulative additions of compounds to the chambers.
Relaxation responses are expressed as percentage of total relaxation (loss in tone) induced by the addition of 0.1 mM papaverine HCl to the chambers at the end of the experiment. All data are expressed as mean±standard error. Complete concentration-response or frequency-response curves were obtained and compared by a two-factor analysis of variance (ANOVA) statistical test using StatView sotfware for Apple computers. Erectile responses were determined by measuring the area under the curve (AUC) of the intracavemosal pressure increases to rat cavernosal nerve stimulation normalized by mean arterial pressure values. The complete frequency-response curves were compared by a two-factor ANOVA test.

[2] = test system: erectile responses (intracavernosal pressure) to cavernosal nerve stimulation; experiment: Erectile responses to cavernosal nerve stimulation in anesthetized rats; format: in vivo, rat; conditions: intravenous 10 mg/kg, stimulation 60 min after administration
Protocol: Male Sprague-Dawley rats were anesthetized with ketamine (60 mg/kg). The surgical procedure consisted of dissection and isolation of the right cavernous nerve through an abdominal midline incision and exposure of penile crura through a transverse perineal incision. Intracavemosal pressure (ICP) measurements were accomplished by insertion into the right crus of a 23-gauge needle connected to a disposable pressure transducer (Abbott, Sligo, Ireland) and a data acquisition system (ADInstruments, Castle Hill, Australia). Left carotid artery and right external jugular vein were catheterized for constant blood pressure measurement and saline or drug infusion, respectively. Electrical stimulation was applied by a delicate platinum bipolar hook electrode connected to a stimulator and current amplifier (Cibertec, Madrid, Spain). Parameters of electrical stimulation consisted of pulses with a duration of 1 ms and 1.5 mA of current intensity for 1 minute. […]
Relaxation responses are expressed as percentage of total relaxation (loss in tone) induced by the addition of 0.1 mM papaverine HCl to the chambers at the end of the experiment. All data are expressed as mean±standard error. […] Erectile responses were determined by measuring the area under the curve (AUC) of the intracavemosal pressure increases to rat cavernosal nerve stimulation normalized by mean arterial pressure values. […]

## O=S(=O)(O)c1cc(O)ccc1O [calcium dobesilate, calcium dihydroxy-2,5 benzenesulfonate]
[1]; calcium dobesilate 10 μM
  effect on ACh-induced relaxation of HPRA: markedly potentiated
[1]; calcium dobesilate 10 μM, combined inhibition of NOS and COX
  potentiation of ACh-induced relaxation of HPRA under combined inhibition of NOS and COX: not significantly affected
[1]; calcium dobesilate 10 μM, high potassium concentration (35 mM)
  potentiation of ACh-induced relaxation of HPRA at high potassium concentration: abolished
[1]; combination of APA (100 nM) and CTX (100 nM)
  potentiating effects on ACh-induced relaxation of HPRA with APA and CTX: abolished the potentiating effects
[1]; miconazole (0.3 mM)
  potentiating effects on ACh-induced relaxation of HPRA resistant to NOS and COX inhibition, with miconazole: significantly reduced the potentiating effects
[2]
  erectile responses to cavernosal nerve stimulation: significantly enhanced the erectile responses

From patent US20070010581A1, “Use of 2,5-dihydroxybenzenesulfonic compounds for the treatment of disorders based on an impairment of no production and/or of regulation of edhf function” (priority 2002, published 2007)
